Experimental data reported in patent publication US9283222B2 (priority 2006, dated 2016).

biological target: Recombinant Human Poly(ADP-Ribose) Polymerase (PARP), PARP-1 (Homo sapiens (Human), UniProt P09874); settings: read-out: PARP-1 (Ki); Table 1; text calls the values EC50s
Sequence (P09874 whole entry): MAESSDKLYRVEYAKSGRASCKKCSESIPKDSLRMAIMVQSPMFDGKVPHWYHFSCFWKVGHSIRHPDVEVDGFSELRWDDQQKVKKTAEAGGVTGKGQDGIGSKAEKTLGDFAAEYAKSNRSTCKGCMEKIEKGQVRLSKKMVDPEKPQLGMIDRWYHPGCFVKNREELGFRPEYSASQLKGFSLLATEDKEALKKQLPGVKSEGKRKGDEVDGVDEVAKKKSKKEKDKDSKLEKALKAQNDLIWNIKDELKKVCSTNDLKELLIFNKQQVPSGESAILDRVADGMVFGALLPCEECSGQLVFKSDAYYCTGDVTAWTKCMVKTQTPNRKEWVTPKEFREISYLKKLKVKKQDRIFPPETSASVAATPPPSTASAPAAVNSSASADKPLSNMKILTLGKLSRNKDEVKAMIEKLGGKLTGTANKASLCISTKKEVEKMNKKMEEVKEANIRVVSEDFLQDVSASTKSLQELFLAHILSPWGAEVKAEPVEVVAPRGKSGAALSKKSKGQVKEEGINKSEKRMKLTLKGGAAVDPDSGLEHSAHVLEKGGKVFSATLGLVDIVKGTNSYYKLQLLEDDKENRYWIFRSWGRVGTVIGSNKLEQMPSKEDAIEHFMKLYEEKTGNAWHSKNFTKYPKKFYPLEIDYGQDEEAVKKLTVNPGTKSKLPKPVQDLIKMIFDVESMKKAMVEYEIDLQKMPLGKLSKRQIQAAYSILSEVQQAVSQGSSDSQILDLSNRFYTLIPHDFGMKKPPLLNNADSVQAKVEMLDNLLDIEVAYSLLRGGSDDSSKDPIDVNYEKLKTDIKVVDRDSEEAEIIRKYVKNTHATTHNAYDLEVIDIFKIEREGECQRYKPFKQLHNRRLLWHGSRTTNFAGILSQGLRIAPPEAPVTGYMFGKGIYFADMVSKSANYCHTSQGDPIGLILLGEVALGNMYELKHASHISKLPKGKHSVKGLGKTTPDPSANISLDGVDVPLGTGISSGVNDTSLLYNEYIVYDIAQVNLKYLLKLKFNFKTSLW

| SMILES | Ki [µM] |
| --- | --- |
| O=C(c1cccc(Cc2n[nH]c(=O)c3c2CCCC3)c1)N1CCN(c2ccccc2Cl)CC1 [Example 446, 4-(3-((4-(2-chlorophenyl)piperazin-1-yl)carbonyl)benzyl)-5,6,7,8-tetrahydrophthalazin-1(2H)-one] | 0.01 |
| CCCOc1ccc(C(=O)Nc2cccc(Cc3n[nH]c(=O)c4c3CCCC4)c2)cc1 [Example 235, N-(3-((4-oxo-3,4,5,6,7,8-hexahydrophthalazin-1-yl)methyl)phenyl)-4-propoxybenzamide] | 0.198 |
| O=C(c1cc(Cc2n[nH]c(=O)c3c2CCCC3)ccc1F)N1CCN(c2ccc(F)cc2F)CC1 [Example 524, 4-(3-{[4-(2,4-difluorophenyl)piperazin-1-yl]carbonyl}-4-fluorobenzyl)-5,6,7,8-tetrahydrophthalazin-1(2H)-one] | 0.005 |
| O=C(Nc1cccc(Cc2n[nH]c(=O)c3c2CCCC3)c1)c1cc(C(F)(F)F)ccc1F [Example 191, 2-fluoro-N-(3-((4-oxo-3,4,5,6,7,8-hexahydrophthalazin-1-yl)methyl)phenyl)-5-(trifluoromethyl)benzamide] | 0.031 |
| Cc1ccc(OCC(=O)Nc2cccc(CCc3n[nH]c(=O)c4c3CCCC4)c2)cc1 [Example 323, 2-(4-methylphenoxy)-N-(3-(2-(4-oxo-3,4,5,6,7,8-hexahydrophthalazin-1-yl)ethyl)phenyl)acetamide] | 0.237 |
| O=C(CCCc1ccccc1)Nc1cccc(Cc2n[nH]c(=O)c3c2CCCC3)c1 [Example 147, N-(3-((4-oxo-3,4,5,6,7,8-hexahydrophthalazin-1-yl)methyl)phenyl)-4-phenylbutanamide] | 0.041 |
| Cc1ccccc1OCC(=O)Nc1cccc(Cc2n[nH]c(=O)c3c2CCCC3)c1 [Example 149, 2-(2-methylphenoxy)-N-(3-((4-oxo-3,4,5,6,7,8-hexahydrophthalazin-1-yl)methyl)phenyl)acetamide] | 0.022 |
| O=C(c1cc(Cc2n[nH]c(=O)c3c2NCCC3)ccc1F)N1CCN(C(=O)C2CCCO2)CC1 (stereo not drawn) [Example 569, 8-(4-fluoro-3-{[4-(tetrahydrofuran-2-ylcarbonyl)piperazin-1-yl]carbonyl}benzyl)-2,3,4,6-tetrahydropyrido[2,3-d]pyridazin-5(1H)-one] | 0.0012 |
| O=C(Nc1cccc(Cc2n[nH]c(=O)c3c2CCCC3)c1)c1cccc(F)c1F [Example 181, 2,3-difluoro-N-(3-((4-oxo-3,4,5,6,7,8-hexahydrophthalazin-1-yl)methyl)phenyl)benzamide] | 0.212 |
| O=C1CC[C@H](C(=O)Nc2cccc(Cc3n[nH]c(=O)c4c3CCCC4)c2)N1 [Example 140, 5-oxo-N-(3-((4-oxo-3,4,5,6,7,8-hexahydrophthalazin-1-yl)methyl)phenyl)-D-prolinamide] | 0.06 |
| O=C(Nc1ccc(Cc2n[nH]c(=O)c3c2CCCC3)cn1)c1ccncc1 [Example 107, N-(5-((4-oxo-3,4,5,6,7,8-hexahydrophthalazin-1-yl)methyl)pyridin-2-yl)isonicotinamide] | 0.216 |
| O=C(c1ccccc1-c1cc(CCc2n[nH]c(=O)c3c2CCCC3)ccc1F)N1CCCC1 [Example 268, 4-(2-(6-fluoro-2′-(pyrrolidin-1-ylcarbonyl)-1,1′-biphenyl-3-yl)ethyl)-5,6,7,8-tetrahydrophthalazin-1(2H)-one] | 0.638 |
| CN(CC1CCCCN1C)C(=O)c1cccc(Cc2n[nH]c(=O)c3c2CCCC3)c1 (stereo not drawn) [Example 78, N-methyl-N-((1-methylpiperidin-2-yl)methyl)-3-((4-oxo-3,4,5,6,7,8-hexahydrophthalazin-1-yl)methyl)benzamide] | 0.165 |
| O=C(COCc1ccccc1)Nc1cccc(Cc2n[nH]c(=O)c3c2CCCC3)c1 [Example 142, 2-(benzyloxy)-N-(3-((4-oxo-3,4,5,6,7,8-hexahydrophthalazin-1-yl)methyl)phenyl)acetamide] | 0.011 |
| CCOc1ccc(CCNC(=O)c2cccc(Cc3n[nH]c(=O)c4c3CCCC4)c2)cc1OC [Example 401, N-(2-(4-ethoxy-3-methoxyphenyl)ethyl)-3-((4-oxo-3,4,5,6,7,8-hexahydrophthalazin-1-yl)methyl)benzamide] | 0.048 |
| CCOc1ccccc1C(=O)Nc1cccc(Cc2n[nH]c(=O)c3c2CCCC3)c1 [Example 187, 2-ethoxy-N-(3-((4-oxo-3,4,5,6,7,8-hexahydrophthalazin-1-yl)methyl)phenyl)benzamide] | 1.25 |
| Cc1ccccc1CCNC(=O)c1cccc(Cc2n[nH]c(=O)c3c2CCCC3)c1 [Example 376, N-(2-(2-methylphenyl)ethyl)-3-((4-oxo-3,4,5,6,7,8-hexahydrophthalazin-1-yl)methyl)benzamide] | 0.173 |
| O=C(c1cccc(Cc2n[nH]c(=O)c3c2CCCC3)c1)N1CCN(c2ccccc2F)CC1 [Example 444, 4-(3-((4-(2-fluorophenyl)piperazin-1-yl)carbonyl)benzyl)-5,6,7,8-tetrahydrophthalazin-1(2H)-one] | 0.004 |
| N#Cc1ccc(S(=O)(=O)Nc2cccc(Cc3n[nH]c(=O)c4c3CCCC4)c2)cc1 [Example 121, 4-cyano-N-(3-((4-oxo-3,4,5,6,7,8-hexahydrophthalazin-1-yl)methyl)phenyl)benzenesulfonamide] | 0.776 |
| NC(=O)C1CCN(C(=O)c2cc(Cc3n[nH]c(=O)c4c3NCCC4)ccc2F)CC1 [Example 534, 1-{2-fluoro-5-[(5-oxo-1,2,3,4,5,6-hexahydropyrido[2,3-d]pyridazin-8-yl)methyl]benzoyl}piperidine-4-carboxamide] | 0.002 |
| CCN(CC)c1ccc(C(=O)Nc2cccc(Cc3n[nH]c(=O)c4c3CCCC4)c2)cc1 [Example 189, 4-(diethylamino)-N-(3-((4-oxo-3,4,5,6,7,8-hexahydrophthalazin-1-yl)methyl)phenyl)benzamide] | 0.175 |
| CCNC(=O)c1ccc(Cc2n[nH]c(=O)c3c2CCCC3)cn1 [Example 94, N-ethyl-5-((4-oxo-3,4,5,6,7,8-hexahydrophthalazin-1-yl)methyl)pyridine-2-carboxamide] | 0.856 |

The remaining lines, values ahead:

| Ki [µM] | SMILES |
| --- | --- |
| 0.0015 | O=C(c1ccc2ccccc2n1)N1CCN(C(=O)c2cc(Cc3n[nH]c(=O)c4c3NCCC4)ccc2F)CC1 [Example 645] |
| 0.0012 | O=C1CCC(C(=O)N2CCN(C(=O)c3cc(Cc4n[nH]c(=O)c5c4CCCC5)ccc3F)CC2)N1 (stereo not drawn) [Example 675, 4-[4-fluoro-3-({4-[(5-oxopyrrolidin-2-yl)carbonyl]piperazin-1-yl}carbonyl)benzyl]-5,6,7,8-tetrahydrophthalazin-1(2H)-one] |
| 0.004 | CCN(C(C)=O)C1CCN(C(=O)c2cc(Cc3n[nH]c(=O)c4c3CCCC4)ccc2F)C1 (stereo not drawn) [Example 619, N-ethyl-N-(1-{2-fluoro-5-[(4-oxo-3,4,5,6,7,8-hexahydrophthalazin-1-yl)methyl]benzoyl}pyrrolidine-3-yl)acetamide] |
| 0.0012 | O=C(c1cccnc1)N1CCN(C(=O)c2cc(Cc3n[nH]c(=O)c4c3CCCC4)ccc2F)CC1 [Example 722, 4-(4-fluoro-3-{[4-(pyridin-3-ylcarbonyl)piperazin-1-yl]carbonyl}benzyl)-5,6,7,8-tetrahydrophthalazin-1(2H)-one] |
| 0.0015 | CC1(C)SCN[C@@H]1C(=O)N1CCN(C(=O)c2cc(Cc3n[nH]c(=O)c4c3CCCC4)ccc2F)CC1 [Example 677, 4-{3-[(4-{[(4R)-5,5-dimethyl-1,3-thiazolidin-4-yl]carbonyl}piperazin-1-yl)carbonyl]-4-fluorobenzyl}-5,6,7,8-tetrahydrophthalazin-1(2H)-one] |
| 0.0013 | CC(C)(C)C(=O)N1CCN(C(=O)c2cc(Cc3n[nH]c(=O)c4c3NCCC4)ccc2F)CC1 [Example 593, 8-(3-{[4-(2,2-dimethylpropanoyl)piperazin-1-yl]carbonyl}-4-fluorobenzyl)-2,3,4,6-tetrahydropyrido[2,3-d]pyridazin-5(1H)-one] |
| 0.0011 | O=C(c1cscn1)N1CCN(C(=O)c2cc(Cc3n[nH]c(=O)c4c3CCCC4)ccc2F)CC1 [Example 674, 4-(4-fluoro-3-{[4-(1,3-thiazol-4-ylcarbonyl)piperazin-1-yl]carbonyl}benzyl)-5,6,7,8-tetrahydrophthalazin-1(2H)-one] |
| 0.008 | O=C(NC1CCN(c2ccccn2)CC1)c1cc(Cc2n[nH]c(=O)c3c2NCCC3)ccc1F [Example 745, 2-fluoro-5-[(5-oxo-1,2,3,4,5,6-hexahydropyrido[2,3-d]pyridazin-8-yl)methyl]-N-(1-pyridin-2-ylpiperidin-4-yl)benzamide] |
| 0.004 | Cn1cncc1C(=O)N1CCCN(C(=O)c2cc(Cc3n[nH]c(=O)c4c3CCCC4)ccc2F)CC1 [Example 637, 4-[4-fluoro-3-({4-[(1-methyl-1H-imidazol-5-yl)carbonyl]-1,4-diazepan-1-yl}carbonyl)benzyl]-5,6,7,8-tetrahydrophthalazin-1(2H)-one] |
| 0.0007 | O=C1CNC(=O)N1c1cc(Cc2n[nH]c(=O)c3c2CCCC3)ccc1F [Example 630, 3-{2-fluoro-5-[(4-oxo-3,4,5,6,7,8-hexahydrophthalazin-1-yl)methyl]phenyl}imidazolidine-2,4-dione] |
| 0.048 | O=C(NC1CCN(C(=O)[C@@H]2CSCN2)CC1)c1cc(Cc2n[nH]c(=O)c3c2NCCC3)ccc1F [Example 729, 2-fluoro-5-[(5-oxo-1,2,3,4,5,6-hexahydropyrido[2,3-d]pyridazin-8-yl)methyl]-N-{1-[(4R)-1,3-thiazolidin-4-ylcarbonyl]piperidin-4-yl}benzamide] |
| 0.0022 | COc1ccc(S(=O)(=O)N2CCN(C(=O)c3cc(Cc4n[nH]c(=O)c5c4CCCC5)ccc3F)CC2)cc1 [Example 620, 4-[4-fluoro-3-({4-[(4-methoxyphenyl)sulfonyl]piperazin-1-yl}carbonyl)benzyl]-5,6,7,8-tetrahydrophthalazin-1(2H)-one] |
| 0.003 | CCN(CCNC(=O)OC(C)(C)C)C(=O)c1cc(Cc2n[nH]c(=O)c3c2CCCC3)ccc1F [Example 711, tert-butyl 2-(ethyl{2-fluoro-5-[(4-oxo-3,4,5,6,7,8-hexahydrophthalazin-1-yl)methyl]benzoyl}amino)ethylcarbamate] |
| 0.003 | O=C(c1cc(Cc2n[nH]c(=O)c3c2NCCC3)ccc1F)N1CCC(O)CC1 [Example 572, 8-{4-fluoro-3-[(4-hydroxypiperidin-1-yl)carbonyl]benzyl}-2,3,4,6-tetrahydropyrido[2,3-d]pyridazin-5(1H)-one] |
